These results are taken from publication PMC6320955, “Self-Dissolving Microneedle Arrays for Transdermal Absorption Enhancement of Human Parathyroid Hormone (1-34)” (Pharmaceutics, 2018).

A short description of series [1]: Storage stability of PTH in MNs fabricated from HA and in PBS solution. In kind it is physicochemical. The following applies: PTH dissolved in PBS, PTH (1-34) ELISA, mean of three experiments. As to the method:
PTH-loaded MNs were packaged into an aluminum sachet purged with nitrogen and stored at −20 °C, 4 °C, or at room temperature (15–20 °C). PTH solution dissolved in PBS was kept at the same temperatures as the control. Following one month of storage, the needles were separated from the back layers of MNs and dissolved in PBS. The actual amounts of PTH present in the needle parts of the MNs were measured using the PTH (1-34) ELISA kit (PTH (1-34), Human, EIA Kit, High Sensitivity, Peninsula Laboratories International, Inc. San Carlos, CA, USA).

A short description of series [2]: In vivo transdermal delivery of PTH: plasma pharmacokinetics. Details: species or system Wistar rats. The following applies: sc, 20 ug/animal, rat, subcutaneous injection of PTH solution, 20 µg/rat, ELISA, mean ± SD of three rats. On the procedure: The abdominal skin of Wistar rats was shaved while the animals were placed under pentobarbital anesthesia (52 mg/kg as pentobarbital sodium salt). PTH-loaded MNs (20 µg/rat) were then applied to the abdominal skin of rats. The dosage of PTH in MNs was calculated based on the content of PTH in the needle part of MNs. Separately, PTH solution (20 µg/rat) was subcutaneously injected into the backs of rats. At pre-determined intervals, 0.3 mL of blood was withdrawn from the jugular veins while the animals were placed under pentobarbital anesthesia (52 mg/kg as pentobarbital sodium salt) and collected in tubes containing 0.3 mg of EDTA and 150 KIU of aprotinin. The collected blood was then centrifuged for 15 min at 4000 rpm to obtain plasma. […] The peak PTH plasma concentration (Cmax) and time to reach Cmax (Tmax) were determined directly from the plasma concentration–time profiles. Area under the plasma concentration-time curve (AUC) after transdermal administration or subcutaneous injection was calculated by the trapezoidal formula and extrapolation to infinite time based on monoexponential equation [26].
The PTH in the plasma sample was extracted and purified using SEP-columns. […] Concentrations of PTH were determined using the PTH (1-34) ELISA kit (PTH (1-34), Human, EIA Kit, High Sensitivity, Peninsula Laboratories International, Inc. San Carlos, CA, USA).
On the technique in general: An ELISA detects its analyte on a solid surface through an enzyme-linked reagent.

The test system of series [3] is rats with ovariectomy (OVX)-induced osteoporosis. As to the kind of experiment: Therapeutic potential in post-menopausal rat model of osteoporosis (OVX). In kind it is in vivo, female Sprague-Dawley rats. Conditions: subcutaneous injection of PTH 20 µg/rat, hematoxylin and eosin. As to the method:
The post-menopausal rat model of osteoporosis was established by performing ovariectomies (OVX) of female Sprague-Dawley rats. Four weeks following OVX, PTH-loaded MNs (20 µg/rat) were applied to the rats twice a week, for a period of 4 weeks. Separately, PTH (20 µg/rat) was subcutaneously injected into the rats. Eight weeks after OVX, rats were euthanized, and the tibias were excised and fixed in 4% paraformaldehyde in PBS. The fixed tibias were then embedded in paraffin and sectioned by microtome. The sections of tibias were subsequently stained with hematoxylin and eosin and then used for histological analysis.

For orientation: Cmax means the highest concentration seen after dosing. In general, Tmax refers to the time from dosing to the highest level.

In the case of `CC[C@H](C)[C@H](NC(=O)[C@H](CCC(=O)O)NC(=O)[C@H](CO)NC(=O)[C@@H](NC(=O)[C@@H](N)CO)C(C)C)C(=O)N[C@@H](CCC(N)=O)C(=O)N[C@@H](CC(C)C)C(=O)N[C@@H](CCSC)C(=O)N[C@@H](Cc1c[nH]cn1)C(=O)N[C@@H](CC(N)=O)C(=O)N[C@@H](CC(C)C)C(=O)NCC(=O)N[C@@H](CCCCN)C(=O)N[C@@H](Cc1c[nH]cn1)C(=O)N[C@@H](CC(C)C)C(=O)N[C@@H](CC(N)=O)C(=O)N[C@@H](CO)C(=O)N[C@@H](CCSC)C(=O)N[C@@H](CCC(=O)O)C(=O)N[C@@H](CCCNC(=N)N)C(=O)N[C@H](C(=O)N[C@@H](CCC(=O)O)C(=O)N[C@@H](Cc1c[nH]c2ccccc12)C(=O)N[C@@H](CC(C)C)C(=O)N[C@@H](CCCNC(=N)N)C(=O)N[C@@H](CCCCN)C(=O)N[C@@H](CCCCN)C(=O)N[C@@H](CC(C)C)C(=O)N[C@@H](CCC(N)=O)C(=O)N[C@@H](CC(=O)O)C(=O)N[C@H](C(=O)N[C@@H](Cc1c[nH]cn1)C(=O)N[C@@H](CC(N)=O)C(=O)N[C@@H](Cc1ccccc1)C(=O)O)C(C)C)C(C)C` [PTH, Human parathyroid hormone (1-34)], the “initial PTH retained in the solution after storage” value is given as roughly 84% in series [1] (stored one month at 4 °C), roughly 13% in series [1] (stored one month at room temperature (15–20 °C)) and “approximately 98%” in series [1] (stored one month at −20 °C). Also, in series [2] (Wistar), the concentration peaked (Cmax) at 15.1 ± 4.6 ng/mL. For the same compound, the Tmax in series [2] (in vivo) is 30 min. In addition, in series [3], the “effect on decrease in bone matrix density (tibia histology)” value was “effectively prevented”.
